# pIC50: −log10 of the molar value.
# Experiments:
# Vasopressin V1 = Vasopressin V1 Antagonist Activity in Conscious Rats (vasopressin vasopressor response); type: in vivo, rat; conditions: 10 mg/kg iv; for Max % Inhibition: vasopressin vasopressor response
# Method: Vasopressin V1 Antagonist Activity in Conscious Rats Conscious rats are restrained in a supine position with elastic tape. The area at the base of the tail is locally anesthetized by subcutaneous in filtration with 2% procaine (0.2 ml). Using aseptic technique the ventral caudal tail artery is isolated and a cannula made of PE 10 and 20 (heat-fused) tubing is passed into the lower abdominal aorta. The cannula is secured, heparinized (1000 i.u./cc), sealed and the wound closed with one or two stitches of Dexon 4-0. The caudal vein is also cannulated in the same manner for intravenous drug administration. The duration of the surgery is approximately 5 minutes. Additional local anesthesia (2% procaine or lidocaine) is provided as needed. The animals are placed in plastic restraining cages in an upright position. The cannula is attached to a Statham P23Db pressure transducer and pulsatile blood pressure is recorded. […] Percentage of antagonism by the compound is calculated using the pre-drug vasopressin vasopressor response as 100%. The results of this test on representative compounds of this invention in which the dose, the maximum % inhibition and the time in minutes, are shown in Table III.
# [1] = biological target: T1, Human V2 Vasopressin Receptor (Homo sapiens, UniProt P30518); assay: Binding to Membranes of Mouse Fibroblast Cell Line (LV-2) Transfected with the cDNA Expressing the Human V2 Vasopressin Receptor; conditions: ** LV-2 cell membranes
# T1 construct: expressed in transfected cells; host or cells: mouse fibroblast cell line LV-2
# Method: (a) Membrane Preparation Flasks of 175 ml capacity, containing attached cells grown to confluence, are cleared of culture medium by aspiration. […] The content of all flasks is poured into a centrifuge tube and the cells pelleted at 300× g for 15 min. The Hank's based solution is aspirated off and the cells homogenized with a polytron at setting #6 for 10 sec in 10.0 mM Tris.HCl buffer, pH 7.4 containing 0.25M sucrose and 1.0 mM EDTA. The homogenate is centrifuged at 1500× g for 10 min to remove ghost membranes. The supernatant fluid is centrifuged at 100,000× g for 60 min to pellet the receptor protein. […] (b) Receptor Binding […] Non specific binding is assessed in the presence of 1.0 μM of unlabeled ligand, added in 20 μl volume. […] The radioactivity trapped on the filter disk by the ligand-receptor complex is assessed by liquid scintillation counting in a Packard LS Counter, with an efficiency of 65% for tritium. The data are analyzed for IC50 values by the LUNDON-2 program for competition (LUNDON SOFTWARE, Ohio).
# Vasopressin V2 = Vasopressin V2 Antagonist Activity in Conscious Hydrated Rats; type: in vivo, rat; conditions: 10 mg/kg orally, AVP 0.4 μg/kg i.p.; for Osmolality: urine
# Method: Two to four rats are used for each compound. One hour later, arginine vasopressin (AVP, antidiuretic hormore, ADH) dissolved in peanut oil is administered at 0.4 μg/kg intraperitoneally. Two rats in each test would not receive arginine vasopressin but only the vehicle (peanut oil) to serve as water-loading control. Twenty minutes later each rat is given 30 mL/kg of deionized water orally by gavage and is placed individually in a metabolic cage equipped with a funnel and a graduated glass cylinder to collect urine for four hours. Urine volume is measured and osmolality analyzed by use of a Fiske One-Ten osmometer (Fiske Assoc., Norwood, Mass., USA). Urinary sodium, potassium, and chloride are analyzed by use of ion-specific electrodes in a Beckman E3 (Electrolyte 3) Analyzer. In the following results, […] and decreased osmolality relative to AVP-control indicates activity.
# oxytocin receptors = biological target: T2, oxytocin receptors (Rattus norvegicus, UniProt P70536); assay: Oxytocin Receptor Binding; set-up: species or system rat (female Sprague-Dawley); conditions: for pIC50: 1.0 nM [3H]OT
# T2 construct: The uteri are dissected out, cleaned of fat and connective tissues; from tissue; host or cells: uteri of DES-treated female Sprague-Dawley rats
# T2 sequence (P70536 1-388): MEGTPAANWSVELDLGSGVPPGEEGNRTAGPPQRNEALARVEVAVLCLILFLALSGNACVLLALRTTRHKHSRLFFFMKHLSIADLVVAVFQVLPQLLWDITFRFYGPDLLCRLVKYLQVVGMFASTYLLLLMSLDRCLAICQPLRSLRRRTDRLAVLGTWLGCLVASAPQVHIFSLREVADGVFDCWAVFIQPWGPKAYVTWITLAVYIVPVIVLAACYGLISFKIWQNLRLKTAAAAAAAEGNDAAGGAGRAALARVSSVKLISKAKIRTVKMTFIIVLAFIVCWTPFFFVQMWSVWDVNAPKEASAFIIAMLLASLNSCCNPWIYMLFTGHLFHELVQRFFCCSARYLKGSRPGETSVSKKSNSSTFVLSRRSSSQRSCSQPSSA
# Method: Oxytocin Receptor Binding
# Female Sprague-Dawley rats weighing approximately 200-250 g are injected intramuscularly (i.m.) with 0.3 mg/kg of body weight of diethylstilbestrol (DES). The rats are sacrificed 18 hours later under pentobarbital anesthesia. The uteri are dissected out, cleaned of fat and connective tissues and rinsed in 50 ml of normal saline. The tissue pooled from six rats is homogenized in 50 ml of […] Tris.HCl, containing 0.5 mM dithiothreitol and 1.0 mM EDTA, adjusted to pH 7.4, using a polytron at setting 6 with three passes of 10 sec each. The homogenate is passed through two (2) layers of cheesecloth and the filtrate centrifuged at 1000× g for 10 min. The clear supernatant is removed and recentrifuged at 165,000× g for 30 min. The resulting pellet containing the oxytocin receptors is resuspended in 50.0 mM Tris.HCl containing 5.0 mM MgCl2 at pH 7.4, to give a protein concentration of 2.5 mg/ml of tissue suspension. This preparation is used in subsequent binding assays with [^3 H]Oxytocin.
# Binding of 3,5-[^3 H]Oxytocin ([^3 H]OT) to its receptors is done in microtiter plates using [^3 H]OT, at various concentrations, in an assay buffer of 50.0 mM Tris.HCl, pH 7.4 and containing 5.0 mM MgCl2, and a mixture of protease inhibitors: BSA, 0.1 mg; aprotinin, 1.0 mg; 1,10-phenanthroline, 2.0 mg; […], 10.0 mg; and PMSF, 0.3 mg per 100 ml of buffer solution. Non-specific binding is determined in the presence of 1.0 uM unlabeled OT. The binding reaction is terminated after 60 min., at 22° C., by rapid filtration through glass fiber filters using a Brandel, cell harvester (Biomedical Research and Development Laboratories,Inc., Gaithersburg, Md.). Competition experiments are conducted at equilibrium using 1.0 nM [^3 H]OT and varying the concentration of the displacing agents. The concentrations of agent displacing 50% of [^3 H]OT at its sites (IC50) are calculated by a computer assisted LUNDON-2 program (LUNDON SOFTWARE INC., Ohio, USA).
# T1 sequence (P30518 whole entry): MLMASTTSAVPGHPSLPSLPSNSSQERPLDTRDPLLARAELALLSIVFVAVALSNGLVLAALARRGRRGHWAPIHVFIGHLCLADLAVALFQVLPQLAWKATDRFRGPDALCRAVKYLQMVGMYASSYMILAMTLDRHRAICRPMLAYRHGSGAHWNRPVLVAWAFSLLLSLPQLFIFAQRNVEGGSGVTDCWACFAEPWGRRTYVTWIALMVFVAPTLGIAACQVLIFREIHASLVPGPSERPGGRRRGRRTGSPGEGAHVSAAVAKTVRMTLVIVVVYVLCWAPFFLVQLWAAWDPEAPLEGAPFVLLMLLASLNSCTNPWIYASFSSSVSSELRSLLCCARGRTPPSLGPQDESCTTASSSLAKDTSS
pIC50 [1],inhibition at 10 µM (oxytocin receptors) [%],pIC50 (oxytocin receptors),SMILES,Time (of maximum % inhibition) (Vasopressin V1) [min],Max % Inhibition (Vasopressin V1) [%],Urine Volume (Vasopressin V2) [ml/4 hrs],Osmolality (Vasopressin V2) [mOsm/kg]
5.77,100,6.64,"O=C(c1ccc(-c2ccccc2)cc1)N1Cc2ccnn2Cc2ccccc21 [Example 7, 5-([1,1'-Biphenyl]-4-ylcarbonyl)-5,10-dihydro-4H-pyrazolo[5,1-c][1,4]benzodiazepine]",30,90,7.5,1005
5.60,89,5.59,"O=C(c1ccc(-c2cc(F)cc(F)c2)cc1)N1Cc2cccn2Cc2ccccc21 [Example 3, 10,11-Dihydro-10-[4-(3,5-difluorophenyl)benzoyl]-5H-pyrrolo[2,1-c][1,4]benzodiazepine]",30,92,5.9,1205
,100,6.89,"O=C(c1ccc(-c2ccccn2)cc1)N1Cc2cccn2Cc2ccccc21 [Example 9, 10,11-Dihydro-10-[4-(2-pyridinyl)benzoyl]-5H-pyrrolo[2,1-c][1,4]benzodiazepine]",30,70,8.3,857
,95,5.90,O=C(c1ccc(-c2ccccc2C(F)(F)F)cc1)N1Cc2cccn2Cc2ccccc21 [Example 8],,,8,887
6.41,81,7.37,"O=C(c1ccc(-c2ccccc2)cc1)N1Cc2cccn2Cc2ccccc21 [Example 19, 10-([1,1'-Biphenyl]-4-ylcarbonyl)-10,11-dihydro-5H-pyrrolo[2,1-c][1,4]benzodiazepine]",30,60,3.5,1598
